Measured values published in patent US10426728B2, “Synergistic liposomal formulation for the treatment of cancer” (priority 2013, dated 2019).
Structures can show the parent of a compound that is named as a salt.

Key:
[1] = system: U937 cells; type: cell-based, human; conditions: 7 μg/ml free CPT, 2 h
Description: (§1) Murine melanoma cell line B16F10, colorectal adenocarcinoma SW480 cell line, human colon carcinoma HCT116 cell line, rat brain astrocytes and rat C6 glioma cell lines were maintained in Dulbecco Modified Eagle Medium (DMEM) supplemented with 10% fetal bovine serum, sodium pyruvate, 2 mM L-glutamine, penicillin, and streptomycin. Murine macrophage cell line RAW 264.7, MOLT-4 cell line (derived from human acute lymphoblastic leukemia), human leukemia cell lines K-562 and human lymphoma cell line U-937 were maintained in RPMI 1640 medium supplemented with 10% fetal bovine serum, sodium pyruvate, 2 mM L-glutamine, penicillin, and streptomycin. The cells were incubated at 37° C. in a humidified atmosphere of 5% CO2 in air (10). The Ehrlichs ascites carcinoma cells (EAC) were maintained in vivo in Swiss albino mice, by intraperitoneal (i.p.) transplantation of 2×10^6 cells/mouse every 15 days. Cells were obtained from the peritoneal fluid after 15 days, washed in 0.2M PBS and resuspended in RPMI medium supplemented with 10% FBS.
(§2) Inhibition of 3-(4, 5-dimethylthiozol-2-yl)-2, 5-diphenyltetrazolium bromide (MTT) reduction to insoluble formazan by mitochondrial dehydrogenase was used as a viability parameter for the cells and compared with untreated control. […] The reduced formazan was solubilised in DMSO and plates were analyzed by determining the A550 on Thermo [sequence]

[2] = system: SW480 cells; test: MTT viability assay; type: cell-based, human; conditions: 7 μg/ml free CPT, 2 h
Description: as §1, §2

[3] = system: B16F10 cells; test: JC-1 mitochondrial membrane potential flow cytometry; type: cell-based, murine; conditions: 7 μg/ml of free CPT, 2 h
Description: Supernatant was carefully removed. 0.5 ml of freshly prepared 5,5′,6,6′-tetrachloro-[…] Iodide (JC-1) working solution containing 1:100 JC-1 stain was added to each pellet. The pellets were resuspended. Cells were incubated in JC-1 working solution for 10-15 min at 37° C. in a CO2 incubator. Cells were washed twice following incubation. Cells were then analyzed by flow cytometry. (BD™ MitoScreen Flow Cytometry Mitochondrial Membrane Potential Detection Kit) (33).

[4] = system: rat C6 glioma cells; conditions: 7 μg/ml free CPT, 2 h
Description: as §1, §2

[5] = system: human PBMC of healthy donors; type: cell-based; conditions: 7 μg/ml free CPT, 2 h
Description: For isolation of human peripheral blood mononuclear cells from healthy donors (PBMC) heparinized human peripheral blood was obtained from healthy donors and the mononuclear cells (PBMC) were isolated by the density sedimentation on Histopaque-1077 (400×g, 30 min at RT) and washed and resuspended in RPMI 1640 supplemented with 10% FCS, 2 mM Lglutamine, penicillin (100 U/ml), and streptomycin (100 mg/ml) (30). […] Inhibition of 3-(4, 5-dimethylthiozol-2-yl)-2, 5-diphenyltetrazolium bromide (MTT) reduction to insoluble formazan by mitochondrial dehydrogenase was used as a viability parameter for the cells and compared with untreated control. After treatment with drug for 2 or 4 h the cells were washed with 20 mM PBS and incubated with 2 mg/ml MTT solution for 4 h at 37° C. The reduced formazan was solubilised in DMSO and plates were analyzed by determining the A550 on Thermo [sequence]

[6] = system: Ehrlichs ascites carcinoma cells (EAC); type: cell-based, mouse; conditions: 7 μg/ml free CPT, 2 h
Description: as §1, §2

[7] = system: B16F10 cells; type: cell-based, murine; conditions: 2 h
Description: Murine melanoma cell line B16F10, colorectal adenocarcinoma SW480 cell line, human colon carcinoma HCT116 cell line, rat brain astrocytes and rat C6 glioma cell lines were maintained in Dulbecco Modified Eagle Medium (DMEM) supplemented with 10% fetal bovine serum, sodium pyruvate, 2 mM L-glutamine, penicillin, and streptomycin. […] The cells were incubated at 37° C. in a humidified atmosphere of 5% CO2 in air (10).
Inhibition of 3-(4, 5-dimethylthiozol-2-yl)-2, 5-diphenyltetrazolium bromide (MTT) reduction to insoluble formazan by mitochondrial dehydrogenase was used as a viability parameter for the cells and compared with untreated control. After treatment with drug for 2 or 4 h the cells were washed with 20 mM PBS and incubated with 2 mg/ml MTT solution for 4 h at 37° C.

[8] = system: B16F10, K562, U937, rat C6 glioma, EAC, MOLT4 and SW480 cell lines; test: In vitro EC50 of free anticancer drugs by MTT; type: cell-based; conditions: free drug, 2 h treatment
Description: The cells were treated with PC:SA liposome (20-350 μg/ml with respect to PC) or free DOX (500-1000 μg/ml) and free CAMPTOSAR (irinotecan hydrochloride, which is a semisynthetic derivative of camptothecin) (500-10,000 μg/ml). After 2 h of treatment effects on cell viability were determined by MTT assay. EC50 values were determined by nonlinear regression analysis of concentration-response data.

Structure (SMILES) | killing effect [1] | killing effect [2] | green fluorescing monomers (JC-1) [3] [%] | viability [4] [%] | killing effect [5] | viability [6] [%] | viability ([7]; 7 μg/ml free CPT) [%] | cells survived ([7]; free CPT 3.9 μg/ml (REV equivalent) and 6.1 μg/ml (DRV equivalent)) | EC50 [8] [µg/mL]
CC[C@@]1(O)C(=O)OCc2c1cc1n(c2=O)Cc2cc3ccccc3nc2-1 [CPT, camptothecin] | no killing effect | no killing effect | 7 | 71 | no killing effect | 56 | 38 | about 38% | –
CCc1c2c(nc3ccc(OC(=O)N4CCC(N5CCCCC5)CC4)cc13)-c1cc3c(c(=O)n1C2)COC(=O)[C@]3(O)CC [irinotecan hydrochloride] | – | – | – | – | – | – | – | – | 800 to 5000
